Experimental data from publication PMC6270727, “Anticholinesterase Inhibitory Activity of Quaternary Alkaloids from Tinospora crispa” (Molecules, 2014).
Read-outs that look alike come from different tables or passages of the source.

Target: T1, acetylcholinesterase (AChE) from electric eels (type V-S) (Electrophorus electricus, UniProt O42275)
T1 construct: purchased Sigma-Aldrich (St. Louis, MO, USA) type V-S (catalogue number not given)
Assay: Acetylcholinesterase (AChE) inhibitory assay, modified Ellman's colorimetric method, 96-well microplate
Format: biochemical
Settings: for AChE inhibitory activity in words: microplate assay

[1] = mean ± standard deviation of two independent experiments, Tris-HCl pH 8, absorbance at 405 nm, read-out: Acetylcholinesterase inhibitory activity IC50

T1 sequence (O42275 24-633): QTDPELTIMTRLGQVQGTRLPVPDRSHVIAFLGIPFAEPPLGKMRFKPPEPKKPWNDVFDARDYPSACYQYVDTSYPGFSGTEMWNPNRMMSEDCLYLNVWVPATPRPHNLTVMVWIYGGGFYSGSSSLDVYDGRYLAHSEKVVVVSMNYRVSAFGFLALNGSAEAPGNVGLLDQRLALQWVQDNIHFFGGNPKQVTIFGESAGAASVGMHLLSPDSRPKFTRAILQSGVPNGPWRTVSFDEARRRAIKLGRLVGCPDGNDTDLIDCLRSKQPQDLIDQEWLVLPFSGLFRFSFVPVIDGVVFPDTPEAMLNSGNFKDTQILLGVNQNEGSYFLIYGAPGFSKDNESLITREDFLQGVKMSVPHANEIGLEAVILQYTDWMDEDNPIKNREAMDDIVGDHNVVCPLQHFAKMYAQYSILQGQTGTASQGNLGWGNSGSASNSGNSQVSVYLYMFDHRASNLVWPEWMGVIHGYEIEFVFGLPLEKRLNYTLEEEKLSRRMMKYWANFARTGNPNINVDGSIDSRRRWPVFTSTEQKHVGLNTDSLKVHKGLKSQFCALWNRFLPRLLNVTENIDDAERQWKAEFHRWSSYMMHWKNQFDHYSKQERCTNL

| Compound | IC50 | AChE inhibitory activity in words | IC50 [1] |
| --- | --- | --- | --- |
| COc1cc2c(cc1O)-c1cc3ccc(OC)c(OC)c3c[n+]1CC2 [Compound 3, columbamine] | 48.1 ± 1.3 µM | most active compound |  |
| COc1ccc2c(c1O)-c1c(O)c(OC)cc3c1[C@H](C2)[N+](C)(C)CC3 [Compound 4, magnoflorine] |  | very weak or no inhibitory activity |  |
| O=CN1CCc2cc3c(c4c2C1Cc1ccccc1-4)OCO3 (stereo not shown) [Compound 5, N-formylannonaine] |  |  | 415.3 ± 2.7 µM |
| COc1cc(/C=C/C(=O)NCCc2ccc(O)cc2)ccc1O [Compound 7, N-trans-feruloyltyramine] |  | very weak or no inhibitory activity |  |
| COc1cc2c3c(c1OC)-c1ccccc1CC3N(C=O)CC2 (stereo not shown) [Compound 6, N-formylnornuciferine] |  | very weak or no inhibitory activity | 564.6 ± 2.1 µM |
